Tested on: chronic musculoskeletal pain
Experiment: Randomized, double-blind, placebo-controlled clinical study of topical analgesics (St. Lucia), Subjective Pain Intensity Rating (SPIR)
Description: Chronic musculoskeletal pain is relatively common in all age groups and may be the result of work-related trauma, sports-related injuries, postural events, various traumas and the natural aging process. Pharmaceutical agents including non-steroidal anti-inflammatory drugs acetaminophen, opioids and other drugs are frequently used to treat such patients. Because of the potential adverse effects associated with most of these drugs, one embodiment of the present invention, a topical analgesic, with coconut oil as a base ingredient and other natural oils, was clinically tested to determine its efficacy in the management of chronic musculoskeletal pain.
One hundred ninety six (196) patients were enrolled in the study. The patients were randomized to the 3 groups using the nQuery Advisor version 7.0 software protocol.
After obtaining permission from the Committee for the Protection of Human Subjects attached to the St. Lucia Pain Institute, the Ministry of Health in St. Lucia and the St. Lucia Medical and Dental Association Ethics Committee, a randomized, double-blind, placebo-controlled study was designed and implemented in the Caribbean island of St. Lucia. St. Lucia was chosen as the study site for a number of reasons: that population is relatively opioid-naive; chronic musculoskeletal pain is quite common, and most patients tend to use and in some cases, prefer to use topical analgesics for musculoskeletal pain management instead of oral or other parenteral medications. Moreover, the Principal Investigator (inventor of the present invention) lives in St. Lucia for part of the year. One hundred and ninety-six (196) patients were enrolled in the study and were subsequently randomized to a pre-determined computerized protocol. […] The Diclofenac ointment was dispensed in a label-less tube.
All patients were initially evaluated by the Principal Investigator and another investigator after triage screening by the Study Coordinator. At that screening, the patients were assessed using the inclusionary and exclusionary criteria. […] Patients were recruited via television, radio and newspaper announcements, and interviews announcing the study. […] This study was supported and funded by three St. Lucian Financial Institutions.
Subjective Pain Intensity Rating (SPIR) was determined on each patient using a scale of 0 (no pain) to 10 (the maximum possible pain, e.g. immersion of the hand in boiling water). That raw score was multiplied by 10 to obtain a percentage score. […] After successful enrollment, patients were randomized to one of the 3 groups. Patients were dispensed with 5 ounces of one of the 3 medications and were instructed to apply the medication twice daily for 2 weeks.
All patients were contacted by the Study Coordinator after 2 weeks and pain score (as described above), satisfaction with the drug, satisfaction with the overall study and the presence of adverse effects were determined. Then, 2 weeks later (4 weeks after study commencement), patients were asked to return to the study office (St. Lucia Pain Institute office) for follow-up clinical evaluation and determination of pain score, adverse effects and related data similar to what was obtained at 2 weeks.

## O=C(O)Cc1ccccc1Nc1c(Cl)cccc1Cl [Diclofenac]
100 point scale, 3 month post-study telephone interview
  Median pain score at 3 months: 25%
100 point scale, decrease, not statistically significant among groups
  Median change in pain from baseline to 3 months (decrease): 30%
After 5 days, subsided on discontinuation, reappeared on re-introduction, study discontinued in that patient after 8 days
  patients with progressive radicular pain and paresthesiae (major adverse effect): One
Patients with chronic axial musculoskeletal pain, topical twice daily, baseline to 2 weeks, all p<0.0001
  change in SPIR pain score from baseline to 2 weeks: corresponding decreases in pain scores
Patients with chronic axial musculoskeletal pain, topical twice daily, baseline to 4 weeks, all p<0.0001
  change in SPIR pain score from baseline to 4 weeks: corresponding decreases in pain scores
Receded without therapy when the drug was discontinued
  patients who developed superficial skin rashes: Four
